Assay results published in patent US6255339A, “Tetrahydronaphthofuranone derivatives and process for producing the same” (Meiji Seika Kaisha, Ltd., priority 1996, dated 2001).

What was measured:
[1] = biological target: T1, progesterone receptor (Sus scrofa, UniProt D0EWS6); assay: progesterone receptor binding inhibition ([^3 H]-progesterone, cytosol from uteri of hogs); settings: [^3 H]-progesterone ligand, hog uterus cytosol, 60 min at 4° C.; read-out: Inhibitory activity (IC50) against progesterone receptor binding
T1 construct: from tissue; host or cells: hog uterus, cytosol (100,000×g supernatant)
T1 sequence (D0EWS6 1-934): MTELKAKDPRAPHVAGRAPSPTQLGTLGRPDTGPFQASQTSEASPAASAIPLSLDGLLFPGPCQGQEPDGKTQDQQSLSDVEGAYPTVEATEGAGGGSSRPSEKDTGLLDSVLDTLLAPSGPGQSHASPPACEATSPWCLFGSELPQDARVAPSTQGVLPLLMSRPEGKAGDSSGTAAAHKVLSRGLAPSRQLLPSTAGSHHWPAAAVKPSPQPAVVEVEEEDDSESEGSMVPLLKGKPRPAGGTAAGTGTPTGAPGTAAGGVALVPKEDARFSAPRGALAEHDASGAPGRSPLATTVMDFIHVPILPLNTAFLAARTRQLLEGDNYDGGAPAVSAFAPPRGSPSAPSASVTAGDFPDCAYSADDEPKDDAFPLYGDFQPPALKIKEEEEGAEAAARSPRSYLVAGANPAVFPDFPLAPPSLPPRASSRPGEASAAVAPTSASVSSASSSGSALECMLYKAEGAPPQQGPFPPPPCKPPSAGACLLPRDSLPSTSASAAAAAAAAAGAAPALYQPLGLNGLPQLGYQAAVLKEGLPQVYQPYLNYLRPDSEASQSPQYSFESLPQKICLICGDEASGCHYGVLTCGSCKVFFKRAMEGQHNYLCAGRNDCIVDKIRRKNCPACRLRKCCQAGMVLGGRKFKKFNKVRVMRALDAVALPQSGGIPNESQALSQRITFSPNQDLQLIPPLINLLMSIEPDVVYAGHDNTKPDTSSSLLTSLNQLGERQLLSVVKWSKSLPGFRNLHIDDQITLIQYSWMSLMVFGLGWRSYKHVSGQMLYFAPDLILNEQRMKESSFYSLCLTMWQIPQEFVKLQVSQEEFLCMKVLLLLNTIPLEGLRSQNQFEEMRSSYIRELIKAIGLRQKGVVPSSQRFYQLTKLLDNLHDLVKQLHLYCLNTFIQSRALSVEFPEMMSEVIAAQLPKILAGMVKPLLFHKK
Method: That is, uteri taken from hogs in 5 mM phosphate buffer were disrupted using Polytron homogenizer, and the resulting solution was centrifuged (100,000×g, 30 min) to separate the supernatant, thereby preparing a cytosol containing progesterone receptor. […] Then, 100 μl of a 0.5% activated carbon solution was added to the reaction solution, and the mixture was allowed to stand for 10 min and then centrifuged (2,000×g, 10 min). The radioactivity of the supernatant was measured with a liquid scintillation counter.
Separately, the radioactivity was measured in the same manner as described above, except that no test drug was added. Further, the radioactivity was measured in the same manner as described above, except that 10 μl of Medroxyprogesterone Acetate (MPA) (10 μg/ml) was added instead of the test drug. The radioactivity with no test drug added was defined as the amount of total binding of [^3 H]-progesterone to the cytosol, and the radioactivity with MPA added was defined as the amount of non-specific binding. The inhibition ratio was calculated from these measured values by the following equation to determine the binding inhibitory activity (IC50). [formula]

[2] = Solubility; assay type: physicochemical; settings: for Solubility (solvents in which soluble): organic solvents; for Solubility (solvents in which insoluble): water and hexane
[3] = Acute Toxicity; assay type: in vivo, SD male rat
Method: The compound of Example A4 dissolved in 0.2% of methylcellulose solution was hypodermically administered to SD male rat (16 weeks old) at a dose of 60 mg/kg.

**Q.** Which IC50 [1] does the source give for `CCCC(=O)O[C@H]1CC=C2C=C3OC(=O)C(C)=C3C[C@]2(C)[C@H]1C` (relative stereo) [Example B4, (4aR*,5R*,6S*)-6-Butyryloxy-4a,5,6,7-tetrahydro-3,4a,5-trimethylnaphtho[2,3-b]furan-2(4H)-one] here?
**A.** 53 nM

**Q.** Which IC50 [1] does the source give for `CC(=O)O[C@@H]1C=C2C=C3OC(=O)C(C)=C3C[C@]2(C)[C@@H](C)[C@H]1OC(=O)c1ccco1` [Example A44, (4aR,5R,6R,7R)-7-Acetoxy-6-(2-furancarbonyl)oxy-4a,5,6,7-tetrahydro-3,4a,5-trimethylnaphtho[2,3-b]furan-2(4H)-one] here?
**A.** 276 nM

**Q.** For `CC1=C2C[C@@]3(C)C(=C[C@@H](O)[C@H](OC(=O)c4cccs4)[C@@H]3C)C=C2OC1=O` [Example A45, (4aR,5R,6R,7R)-7-Hydroxy-6-(2-thiophencarbonyl)oxy-4a,5,6,7-tetrahydro-3,4a, 5-trimethylnaphtho[2,3-b]furan-2(4H)-one], which IC50 [1] is on record?
**A.** 29 nM

**Q.** What does the source list for `CC1=C2C[C@@]3(C)C(=C[C@H](O)[C@H](O)[C@@H]3C)C=C2OC1=O` [PF1092C]?
**A.** Solubility (solvents in which soluble) [2]: soluble in chloroform, acetone, ethyl acetate, methanol and dimethyl sultoxide; Solubility (solvents in which insoluble) [2]: insoluble in water and hexane

**Q.** For `CC1=C2C[C@@]3(C)C(=C[C@H](OCc4ccccc4)[C@H](O)[C@@H]3C)C=C2OC1=O` [Example A7, (4aR,5R,6R,7S)-7-Benzyloxy-6-hydroxy-4a,5,6,7-tetrahydro-3,4a,5-trimethylnaphtho[2,3-b]furan-2(4H)-one], which IC50 [1] is on record?
**A.** 2840 nM

**Q.** With `CCC(=O)O[C@H]1[C@H](OC)C=C2C=C3OC(=O)C(C)=C3C[C@]2(C)[C@H]1C` [Example A10, (4aR,5R,6R,7R)-7-Methoxy-6-propionyloxy-4a,5,6,7-tetrahydro-3,4a,5-trimethylnaphtho[2,3-b]furan-2(4H)-one] as the molecule, how does the IC50 [1] read?
**A.** 75 nM

**Q.** With `CC1=C2C[C@@]3(C)C(=CC[C@H](OC(=O)c4ccccc4)[C@@H]3C)C=C2OC1=O` (relative stereo) [Example B7, (4aR*,5R*,6S*)-6-Benzoyloxy-4a,5,6,7-tetrahydro-3,4a,5-trimethylnaphtho[2,3-b]furan-2(4H)-one] as the molecule, how does the IC50 [1] read?
**A.** 54 nM

**Q.** For `CC1=C2C[C@@]3(C)C(=C[C@H](O)[C@H](OC(=O)c4ccc([N+](=O)[O-])cc4)[C@@H]3C)C=C2OC1=O` [Example A23, (4aR,5R,6R,7S)-7-Hydroxy-6-(4-nitrobenzoyl)oxy-4a,5,6,7-tetrahydro-3,4a,5-trimethylnaphtho[2,3-b]furan-2(4H)-one], which IC50 [1] is on record?
**A.** 18 nM

**Q.** With `C[C@H]1[C@@H](OC(=O)c2ccco2)CC=C2C=C3OC(=O)C=C3C[C@@]21C` (relative stereo) [Example B30, (4aR*,5R*,6S*)-4a,5-Dimethyl-6-(2-furoyl)oxy-4a,5,6,7-tetrahydronaphtho[2,3-b]furan-2(4H)-one] as the molecule, how does the IC50 [1] read?
**A.** 60 nM

**Q.** With `CC(=O)O[C@H]1CC=C2C=C3OC(=O)C(C)=C3C[C@]2(C)[C@H]1C` [B42 (Natural type)] as the molecule, how does the IC50 [1] read?
**A.** 33 nM

**Q.** With `CCC(=O)O[C@H]1CC=C2C=C3OC(=O)C=C3C[C@]2(C)[C@H]1C` (relative stereo) [Example B28] as the molecule, how does the IC50 [1] read?
**A.** 66 nM

**Q.** Which IC50 [1] does the source give for `CC(=O)O[C@H]1CC=C2C=C3OC(=O)C=C3C[C@]2(C)[C@H]1C` (relative stereo) [Example B27, (4aR*,5R*,6S*)-6-Acetoxy-4a,5-dimethyl-4a,5,6,7-tetrahydronaphtho [2,3-b]furan-2(4H)-one] here?
**A.** 39 nM

**Q.** With `CC(=O)O[C@@H]1CC=C2C=C3OC(=O)C(C)=C3C[C@@]2(C)[C@@H]1C` [Example B42 (Nonnatural type)] as the molecule, how does the IC50 [1] read?
**A.** 797 nM

**Q.** With `CC1=C2C[C@@]3(C)C(=C[C@H](O)[C@H](OC(=O)CCl)[C@@H]3C)C=C2OC1=O` [Example A12, (4aR,5R,6R,7S)-6-Chloroacetoxy-7-hydroxy-4a,5,6,7-tetrahydro-3,4a,5-trimethylnaphtho[2,3-b]furan-2(4H)-one] as the molecule, how does the IC50 [1] read?
**A.** 83 nM

**Q.** With `CC1=C2C[C@@]3(C)C(=C[C@H](O)[C@H](OC(=O)c4ccccc4)[C@@H]3C)C=C2OC1=O` [Example A21, (4aR,5R,6R,7S)-6-Benzoyloxy-7-hydroxy-4a,5,6,7-tetrahydro-3,4a,5-trimethylnaphtho[2,3-b]furan-2(4H)-one] as the molecule, how does the IC50 [1] read?
**A.** 27 nM

**Q.** For `CC(=O)O[C@H]1CC=C2C=C3OC(=O)C(C)=C3C[C@]2(C)[C@H]1C` (relative stereo) [Example B2, (4aR*,5R*,6S*)-6-Acetoxy-4a,5,6,7-tetrahydro-3,4a,5-trimethylnaphtho[2,3-b]furan-2(4H)-one], which IC50 [1] is on record?
**A.** 55 nM

**Q.** For `CC1=C2C[C@@]3(C)C(=C[C@H](O)[C@H](OC(=O)c4ccco4)[C@@H]3C)C=C2OC1=O` [Example A3, (4aR,5R,6R,7S)-6-(2-Furancarbonyl)oxy-7-hydroxy-4a,5,6,7-tetrahydro-3,4a,5-trimethylnaphtho[2,3-b]furan-2(4H)-one], which IC50 [1] is on record?
**A.** 12 nM

**Q.** Which IC50 [1] does the source give for `COCO[C@H]1C=C2C=C3OC(=O)C(C)=C3C[C@]2(C)[C@@H](C)[C@H]1OC(=O)c1ccccc1` [Example A8, (4aR,5R,6R,7S)-6-Benzoyloxy-7-methoxymethoxy-4a,5,6,7-tetrahydro-3,4a,5-trimethylnaphtho[2,3-b]furan-2(4H)-one] here?
**A.** 97 nM

**Q.** For `CC1=C2C[C@@]3(C)C(=C[C@H](O)[C@H](OC(=O)C4CCCCC4)[C@@H]3C)C=C2OC1=O` [Example A19, (4aR,5R,6R,7S)-6-Cyclohexylcarbonyloxy-7-hydroxy-4a,5,6,7-tetrahydro-3,4a,5-trimethylnaphtho[2,3-b]furan-2(4H)-one], which IC50 [1] is on record?
**A.** 47 nM

**Q.** Which IC50 [1] does the source give for `CCC(=O)O[C@H]1C=C2C=C3OC(=O)C(C)=C3C[C@]2(C)[C@@H](C)[C@H]1O` [Example A1, (4aR,5R,6R,7S)-6-Hydroxy-7-propionyloxy-4a,5,6,7-tetrahydro-3,4a,5-trimethylnaphtho[2,3-b]furan-2(4H)-one] here?
**A.** 1000 nM

**Q.** For `CC1=C2C[C@@]3(C)C(=C[C@H](O)[C@H](OC(=O)C4CC4)[C@@H]3C)C=C2OC1=O` [Example A17, (4aR,5R,6R,7S)-6-Cyclopropylcarbonyloxy-7-hydroxy-4a,5,6,7-tetrahydro-3,4a,5-trimethylnaphtho[2,3-b]furan-2(4H)-one], which IC50 [1] is on record?
**A.** 17 nM

**Q.** For `CO[C@H]1C=C2C=C3OC(=O)C(C)=C3C[C@]2(C)[C@@H](C)[C@H]1OC(C)=O` [Example A30, (4aR,5R,6R,7S)-6-Acetoxy-7-methoxy-4a,5,6,7-tetrahydro-3,4a, 5-trimethylnaphtho[2,3-b]furan-2(4H)-one], which IC50 [1] is on record?
**A.** 47 nM

**Q.** For `CCO[C@@H]1C=C2C=C3OC(=O)C(C)=C3C[C@]2(C)[C@@H](C)[C@H]1OC(=O)c1cccs1` [Example A41, (4aR,5R,6R,7R)-7-Ethoxy-6-(2-thiophencarbonyl)oxy-4a,5,6,7-tetrahydro-3,4a,5-trimethylnaphtho[2,3-b]furan-2(4H)-one], which IC50 [1] is on record?
**A.** 400 nM

**Q.** For `CCCNC(=O)O[C@H]1[C@@H](O)C=C2C=C3OC(=O)C(C)=C3C[C@]2(C)[C@H]1C` [Example A6b, (4aR,5R,6R,7S)-7-Hydroxy-6-(n-propyl)carbamoyloxy-4a,5,6,7-tetrahydro-3,4a,5-trimethylnaphtho[2,3-b]furan-2(4H)-one], which IC50 [1] is on record?
**A.** 288 nM

**Q.** With `CCC(=O)O[C@H]1[C@@H](OC(=O)CC)C=C2C=C3OC(=O)C(C)=C3C[C@]2(C)[C@H]1C` [Example A4, (4aR,5R,6R,7S)-6,7-Dipropionyloxy-4a,5,6,7-tetrahydro-3,4a,5-trimethylnaphtho[2,3-b]furan-2(4H)-one] as the molecule, how does the IC50 [1] read?
**A.** 32 nM

**Q.** And the survival ([3]; SD male rat (16 weeks old), hypodermic, 60 mg/kg in 0.2% methylcellulose)?
**A.** all the animals survived

**Q.** And the toxicity ([3]; rat, in vivo, 60 mg/kg)?
**A.** no significant toxicity

**Q.** What does the source list for `CC(=O)O[C@H]1C=C2C=C3OC(=O)C(C)=C3C[C@]2(C)[C@@H](C)[C@H]1O` [PF1092B]?
**A.** Solubility (solvents in which soluble) [2]: soluble in chloroform, acetone, ethyl acetate, methanol and dimethyl sulioxide; Solubility (solvents in which insoluble) [2]: insoluble in water and hexane

**Q.** Which results are given for `CC(=O)O[C@H]1[C@@H](O)C=C2C=C3OC(=O)C(C)=C3C[C@]2(C)[C@H]1C` [PF1092A]?
**A.** Solubility (solvents in which soluble) [2]: soluble in chloroform, acetone, ethyl acetate, methanol and dimethyl sulioxide; Solubility (solvents in which insoluble) [2]: insoluble in water and hexane
